Reference: patent US9327008B2, “Cell-permeant peptide-based inhibitor of kinases” (Purdue Research Foundation, priority 2008, dated 2016)

Columns and labels:
[1] = system: IL-1β induced IL-6 expression in mesothelial cells (CRL-9444); experiment: IL-6 ELISA, mesothelial cells induced with IL-1β; format: cell-based; conditions: IL-1β 1 ng/ml
Protocol: A cell line of pleural mesothelial cells (CRL-9444) was purchased from American Type Culture Collection. Cells were maintained and seeded in Medium 199 with Earle's BSS and 0.75 mM L-glutamine (Mediatech, Inc., Manassas, Va.), 1.25 g/L sodium bicarbonate (Sigma, St. Louis, Mo.), 3.3 nM epidermal growth factor (MBL International, Woburn, Mass.), 40 nM hydrocortisone (Sigma), 870 nM insulin (MBL International), 20 mM HEPES (Sigma), trace elements mixture B (Mediatech, Inc.), 10% fetal bovine serum (FBS) (Hyclone, Waltham, Mass.) and 1% penicillin/streptomycin (Mediatech, Inc.). Prior to treating cells with therapeutic inhibitor peptides, cells were allowed to acclimate in serum-free media consisting of only Medium 199 with Earle's BSS. L-glutamine, sodium bicarbonate, HEPES, trace elements mixture B, and penicillin/streptomycin (concentrations and suppliers as above) for 24 hours prior to treatment with cytokines and/or inhibitor peptides. […] For all cell culture experiments, the cell-penetrating MK2 inhibitor peptide sequence [sequence] [SEQ ID NO: 11] was used.
IL-6 analysis was performed with a IL-6 ELISA kit (PeproTech, Inc., Rocky Hill, N.J.). Briefly, the plate was prepared as follows. The capture antibody (antigen-affinity purified goat anti-hIL-6+2.5 mg D-mannitol) was diluted with phosphate buffered saline (PBS) to a concentration of 1 μg/ml and added to the each well of the plate. The plate was sealed and incubated at room temperature overnight. The wells then were aspirated to remove liquid, and washed 4 times using wash buffer (300 μl per well of 0.05% Tween-20 in PBS). After the last wash, the plate was inverted to remove residual buffer, and blotted on a paper towel. Block buffer (300 μl per well of 1% BSA in PBS) was added, the plate incubated for at least 1 hour at room temperature, aspirated and washed 4 times.
Standards (from 2 ng/ml to zero) and samples were prepared in diluent, immediately added to each well in triplicate, and incubated at room temperature for at least 2 hours on a plate shaker adjusted to 300 rpm. […] Following the incubation, the plate was aspirated, washed 4 times, avidin-horse radish peroxidase (HRP) conjugate added ((5.5 μl:10994.5 μl diluent) (100 μl) to each well, incubated for 30 minutes at room temperature on a plate shaker adjusted to 300 rpm, aspirated, and washed 4 times. To each well then was added ABTS Liquid Substrate Solution (Sigma) (100 μl). The plate was incubated at room temperature for color development on a plate shaker adjusted to 300 rpm. Absorbance was measured at 405 nm and 650 nm (650 nm was the wavelength correction subtracted from each 405 nm measurement) using a Spectramax M5 Microplate Reader (Molecular Devices) every 5 minutes for 50 minutes. Hoeschst 33342 nuclear stain (Invitrogen) was used to quantify cell number on the basis of DNA quantity. All results were run in triplicate and normalized to cell number.
One-way ANOVA analyses were used to determine statistically significant increases or decreases in parameters of interest. Significant differences were analyzed with Tukey HSD post hoc comparisons. A significance level of α=0.05 was used in cytokine analyses.
Mesothelial cells were incubated with IL-1β (1 ng/ml) (to induce IL-6 expression) and/or different concentrations of therapeutic inhibitor peptide. The commercially available protein kinase inhibitor Rottlerin was introduced as an inhibitor of both MK2 and PRAK.

[2] = system: IL-6 expression in triple culture of neurons, astrocytes and microglia; conditions: 1 mM or 3 mM MK2i with TNF-α 5 or 10 ng/ml
Protocol: The inhibitory effect of therapeutic inhibitor protein having amino acid sequence [sequence] [SEQ ID NO: 11] on IL-6 production was studied in a triple culture consisting of neurons, astrocytes and microglia. […] The E18 cells were plated (1×10^6 cells/ml) to support differentiation into neurons, astrocytes and microglia. […] The positive control comprised treating the cells with TNF-α (either 5 ng/ml or 10 ng/ml); as a negative control, the cells were exposed to cell media without any treatment. […] Cytokines with or without therapeutic inhibitor peptide were always added simultaneously in this media formulation.

[3] = system: IL-1β expression in rat primary cortical astrocyte cultures; conditions: 1 mM or 3 mM MK2i with TNF-α 5 or 10 ng/ml; 18-22 hours
Protocol: Primary rat astrocytes were isolated from embryonic day 18 Sprague Dawley rat cortices. […] Briefly, the rat cortexes were triturated with a 1 ml pipet aid until most of the large cortex pieces were dispersed. After larger tissue fragments were allowed to settle, the supernatant was collected, in a 15 ml conical tube, and pelleted by centrifugation at 1100 rpm for 1 minute. The resulting supernatant was discarded and the pellet resuspended in neurobasal media (10% horse serum, 3 mM glutamine). The astrocytes then were seeded in the petri dishes and grown until they were confluent (80-95%) after which time they were passed. Astrocytes were passed 1:4, grown to 80-95% confluency, then rinsed twice with PBS. Different treatment types were applied to each corresponding petri dish for 18-22 hours. There was a total of 1 ml of media (neurobasal media with 10% horse serum, 3 mM glutamine) plus treatment in each petri dish. […]
After 18-22 hours, the cells were rinsed with PBS, scraped into a small centrifuge tube using a lysis buffer (8 M urea, 4% CHAPS, 10 mM DTT), and disrupted by using a Disruptor Genie™ (Scientific Industries, Bohemia, N.Y.) for 2 hours. The cells were pelleted by centrifugation at 17 krpm for 15 minutes, the supernatant (cell lysate) collected and the total protein concentration quantified (Pierce BCA Protein Assay kit, Thermo Fisher Scientific, Rockford, Ill.).

[4] = target: T1, Tie2 (Homo sapiens, UniProt Q02763); experiment: Millipore radiometric kinase activity assay, Tie2 (h); format: biochemical
T1 construct: purchased Millipore (radiometric assay service)
T1 sequence (Q02763 23-1124): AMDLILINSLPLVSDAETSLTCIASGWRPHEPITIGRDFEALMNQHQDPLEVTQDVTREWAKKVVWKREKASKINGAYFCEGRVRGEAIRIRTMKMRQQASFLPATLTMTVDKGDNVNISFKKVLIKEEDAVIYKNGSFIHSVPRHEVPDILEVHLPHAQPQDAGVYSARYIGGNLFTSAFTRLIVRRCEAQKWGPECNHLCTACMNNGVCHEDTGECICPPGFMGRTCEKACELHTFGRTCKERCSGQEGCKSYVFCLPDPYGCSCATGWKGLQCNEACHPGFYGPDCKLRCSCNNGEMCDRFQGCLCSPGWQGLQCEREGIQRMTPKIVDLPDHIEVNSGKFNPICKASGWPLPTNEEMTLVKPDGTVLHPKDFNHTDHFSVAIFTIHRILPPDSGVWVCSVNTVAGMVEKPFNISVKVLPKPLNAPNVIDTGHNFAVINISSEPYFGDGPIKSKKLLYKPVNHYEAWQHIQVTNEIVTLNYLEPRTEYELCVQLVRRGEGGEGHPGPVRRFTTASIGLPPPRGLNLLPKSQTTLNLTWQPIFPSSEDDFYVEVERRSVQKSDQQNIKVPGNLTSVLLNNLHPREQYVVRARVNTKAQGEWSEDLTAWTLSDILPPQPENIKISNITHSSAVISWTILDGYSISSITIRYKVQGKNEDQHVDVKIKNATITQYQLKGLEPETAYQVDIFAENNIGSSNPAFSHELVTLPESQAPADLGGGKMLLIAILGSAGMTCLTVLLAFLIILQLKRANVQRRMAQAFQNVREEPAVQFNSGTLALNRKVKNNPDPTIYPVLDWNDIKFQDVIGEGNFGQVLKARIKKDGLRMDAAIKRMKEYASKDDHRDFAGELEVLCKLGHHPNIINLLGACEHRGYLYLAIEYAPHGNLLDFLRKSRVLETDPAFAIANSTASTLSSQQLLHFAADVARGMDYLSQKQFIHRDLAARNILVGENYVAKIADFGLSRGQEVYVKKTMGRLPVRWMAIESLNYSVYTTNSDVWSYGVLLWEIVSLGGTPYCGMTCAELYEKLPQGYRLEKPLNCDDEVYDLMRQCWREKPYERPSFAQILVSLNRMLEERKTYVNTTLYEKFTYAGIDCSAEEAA
Protocol: (§1) A commercial radiometric assay service (Millipore, Billerica, Mass.) was used to test the specificity and potency of peptides containing a coupled transduction domain and therapeutic domain, hereinafter “complete peptides”). In these assays, if the kinase is not inhibited by an inhibitor peptide, a positively charged substrate is phosphorylated with a radiolabeled phosphate group from an ATP.
In a final reaction volume of 25 μL, Tie2 (h) (5-10 mU) is incubated with 8 mM MOPS pH 7.0, 0.2 mM EDTA, 0.5 mM MnCl2, 0.1 mg/mL poly(Glu, Tyr) 4:1, 10 mM MgAcetate and [γ-^33P-ATP] (specific activity approx. 500 cpm/pmol, concentration as required). The reaction is initiated by the addition of the MgATP mix. After incubation for 40 minutes at room temperature, the reaction is stopped by the addition of 5 μL of a 3% phosphoric acid solution. 10 μL of the reaction is then spotted onto a Filtermat A and washed three times for 5 minutes in 75 mM phosphoric acid and once in methanol prior to drying and scintillation counting.
IC50 values for inhibitor peptides were determined using Millipore's IC50Profiler Express service. The IC50 value was estimated from a 10-point curve of one-half log dilutions. […]

[5] = system: 10 Human Kinases; experiment: Specificity of complete inhibitor peptide variants on 10 human kinases; format: biochemical; conditions: Table 5
Protocol: as §1
(§2) IC50 values for inhibitor peptides were determined using Millipore's IC50Profiler Express service. The IC50 value was estimated from a 10-point curve of one-half log dilutions. For peptides tested for specificity, the concentration of the peptides that inhibited approximately 95% of MK2 activity was chosen to profile against a battery of kinases related to MK2, cell viability, or human disease from MilliporeKinaseProfiler service. In both assays, compounds were supplied in dimethylsulfoxide (DMSO). Every kinase activity measurement was conducted in duplicate.
Additional therapeutic inhibitor peptide variants were assayed for activity against several human kinases representative of several families of kinases. […]

[6] = target: MK2 (Homo sapiens, UniProt P49137); experiment: Omnia fluorescence-based kinase activity assay for MAPKAP-K2 (reaction velocity); format: biochemical; design: purchased Invitrogen; conditions: 100 μM peptide; percentage change in MK2 reaction velocity versus unsubstituted KALNRQLGVAA at 100 μM; SD of three samples
Chain of MK2 (P49137 whole entry): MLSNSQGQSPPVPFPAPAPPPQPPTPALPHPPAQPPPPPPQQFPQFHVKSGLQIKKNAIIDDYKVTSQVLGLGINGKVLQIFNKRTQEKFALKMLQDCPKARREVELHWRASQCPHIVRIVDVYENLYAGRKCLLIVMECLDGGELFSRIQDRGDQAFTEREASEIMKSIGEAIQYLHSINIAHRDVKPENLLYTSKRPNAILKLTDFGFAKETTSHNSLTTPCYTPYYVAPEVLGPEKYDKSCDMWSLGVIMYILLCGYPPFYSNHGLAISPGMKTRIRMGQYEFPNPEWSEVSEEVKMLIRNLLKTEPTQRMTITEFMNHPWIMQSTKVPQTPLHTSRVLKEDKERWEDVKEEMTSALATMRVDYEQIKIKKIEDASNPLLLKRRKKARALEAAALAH
Protocol: The Omnia® Kinase Assay for MAPKAP-K2 kit (Invitrogen, Carlsbad, Calif.), was used to determine the reaction velocity for MK2 in the presence and absence of each of the peptides listed in Table 1. The kit contains a proprietary reaction buffer to which the following were added (final concentrations are given): 1 mM ATP, 0.2 mM DTT, 10 μM MAPKAP-K2 Sox-modified peptide substrate, 5 ng MK2, and the inhibitor peptide of interest (final volume of 50 μL). Human MK2 was purchased from Invitrogen. The reactions were performed at 30° C. in the wells of a low-protein-binding 96-well plate provided with the kit, and fluorescence readings (excitation=360 nm, emission=485 nm) were taken every 30 seconds for 20 minutes using a SpectraMax M5 Spectrophotometer (Molecular Devices). Reaction velocity was determined for each reaction well from the slope of a plot of relative fluorescence units versus time. Each inhibitor peptide was tested at least at four concentrations, 12.5, 25, 50 and […], in triplicate.
In Table 1, “a” represents that the results shown are for 100 μM for all peptides; “b” represents the percentage change in MK2 reaction velocity versus the unsubstituted peptide ([…]) [SEQ ID NO: 13] at a concentration of 100 μM; “c” represents the error reported as the standard deviation between three samples.

[7] = target: T2, DYRK2 (Homo sapiens, UniProt Q92630); experiment: Millipore radiometric kinase activity assay, DYRK2 (h); format: biochemical
T2 construct: purchased Millipore (assay service)
T2 sequence (Q92630 1-601): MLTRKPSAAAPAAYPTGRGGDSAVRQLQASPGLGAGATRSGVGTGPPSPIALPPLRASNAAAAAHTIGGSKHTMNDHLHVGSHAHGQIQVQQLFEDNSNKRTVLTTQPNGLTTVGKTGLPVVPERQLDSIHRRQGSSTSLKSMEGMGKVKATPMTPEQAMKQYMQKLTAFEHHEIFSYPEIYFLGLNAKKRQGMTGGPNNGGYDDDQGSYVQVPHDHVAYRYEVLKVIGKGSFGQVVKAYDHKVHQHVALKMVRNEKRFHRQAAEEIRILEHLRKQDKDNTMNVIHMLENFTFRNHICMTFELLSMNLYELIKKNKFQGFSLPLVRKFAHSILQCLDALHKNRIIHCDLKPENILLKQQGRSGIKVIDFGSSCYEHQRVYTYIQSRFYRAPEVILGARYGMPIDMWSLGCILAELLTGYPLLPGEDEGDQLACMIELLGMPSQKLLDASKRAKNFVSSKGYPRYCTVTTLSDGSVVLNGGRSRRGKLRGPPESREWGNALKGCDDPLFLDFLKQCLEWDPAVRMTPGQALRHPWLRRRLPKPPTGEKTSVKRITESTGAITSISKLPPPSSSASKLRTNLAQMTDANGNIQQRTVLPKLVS
Protocol: as §1
In a final reaction volume of 25 μL, DYRK2 (h) (5-10 mU) is incubated with 8 mM MOPS pH 7.0, 0.2 mM EDTA, 2 mg/mL casein, 10 mM MgAcetate and [γ-^33P-ATP] (specific activity approx. 500 cpm/pmol, concentration as required). The reaction is initiated by the addition of the MgATP mix. After incubation for 40 minutes at room temperature, the reaction is stopped by the addition of 5 μL, of a 3% phosphoric acid solution. 10 μL of the reaction is then spotted onto a P30 filtermat and washed three times for 5 minutes in 75 mM phosphoric acid and once in methanol prior to drying and scintillation counting.
as §2
Therapeutic inhibitor peptides were assayed for activity against human kinases related to MK2, cell viability, or human disease. The assays were performed using concentrations of therapeutic inhibitor peptides that yielded 2% to 8% of normal MK2 activity. Error is reported as the standard deviation between 2 samples, and “c” is rat AMPK whereas all other kinases used are human kinases.

Sequence | IL-1β induced IL-6 expression (FIG. 7) ([1]; different concentrations of peptide) | time at which significant reduction of IL-1β induced IL-6 expression occurs ([1]; peptide 3 mM) | IL-1β induced IL-6 expression (FIG. 7) ([1]; peptide 3 mM (highest concentration)) | level of expression of IL-6 (FIG. 11) [2] | level of expression of IL-1β (FIG. 10) [3] | Tie2 Kinase Activity (%) (+SD %) ([4]; peptide 30 μM) | Tie2 Kinase Activity (%) (+SD %) ([4]; peptide 100 μM) | specificity among therapeutic inhibitor peptides (in words) [5] | percent change in MK2 reaction velocity versus unsubstituted peptide [6] | DYRK2 Kinase Activity (%) (+SD %) ([7]; peptide 30 μM) | DYRK2 Kinase Activity (%) (+SD %) ([7]; peptide 100 μM)
YARAAARQARAKALARQLGVAA | inhibited | 6 h | significantly reduced | reduced levels of expression of IL-6 | able to inhibit |  |  |  |  |  | 
WLRRIKAWLRRIKALNRQLGVAA |  |  |  |  |  | 17 (1) % | 0 (0) % | least specificity | −132(10) % | 93 (8) % | −11 (1) %
KAFAKLAARLYRKALARQLGVAA |  |  |  |  |  |  |  |  |  |  | −10 (0) %
